{"source": "patent US20130196954A1", "about": "“METHOD OF TREATING ACNE” (priority 2010, published 2013)", "key": {"moderate or severe acne": {"system": "moderate or severe acne", "experiment": "Phase 2 randomized, double-blind, placebo-controlled clinical study, efficacy", "format": "in vivo, human", "settings": "ITT; for Reduction from baseline in inflammatory lesion count / Success Rate (IGA clear or almost clear): oral once daily", "procedure": "As used herein, “success rate” means the percentage of subjects who achieve a score of “clear” or “almost clear” by Investigator's Global Assessment (IGA) (Inflammatory): A phase 2, multi-center, randomized, double-blind, parallel group, placebo-controlled study was conducted. The treatments were (1) 40 mg doxycycline tablet containing 30 mg IR and 10 mg DR (CD2575/101); (2) doxycycline 100 mg capsules; and (3) placebos (double dummy), which were administered orally once daily. Patients having moderate or severe acne (25 to 75 inflammatory lesions on the face (including the nose) were subjects in the study. Total 660 subjects (220/group) were divided in a 1:1:1 randomization for the three treatments. The treatments lasted 16 weeks. The following were measured for efficacy studies: change from baseline to week 16 (LOCF, ITT) in inflammatory lesion counts (primary endpoint); success rate at week 16 (LOCF, ITT); percent change in inflammatory lesion counts from baseline to week 16 (LOCF, ITT); percent change in total lesion counts from baseline to week 16 (LOCF, ITT); change from baseline to week 16 (LOCF, ITT) in non-inflammatory lesion counts; global assessment for inflammatory lesions of truncal acne at baseline, week 12, and week 16/ET visit, etc. The investigator evaluated the subject's acne at every study visit using the Investigator's Global Assessment (Inflammatory) scale as that described above. The IGA scale in this study focused on inflammatory lesions as the mode of study drug action in acne vulgaris is primarily anti-inflammatory. Onset of efficacy was to be determined for the change in inflammatory lesions and for the success rate, by analyzing time points earlier than week 16"}, "[1]": {"experiment": "Phase 2 clinical study, safety (adverse events)", "format": "in vivo, human", "procedure": "A phase 2, multi-center, randomized, double-blind, parallel group, placebo-controlled study was conducted. The treatments were (1) 40 mg doxycycline tablet containing 30 mg IR and 10 mg DR (CD2575/101); (2) doxycycline 100 mg capsules; and (3) placebos (double dummy), which were administered orally once daily.\nPatients having moderate or severe acne (25 to 75 inflammatory lesions on the face (including the nose) were subjects in the study. Total 660 subjects (220/group) were divided in a 1:1:1 randomization for the three treatments. The treatments lasted 16 weeks.\nThe safety studies included standard safety reporting. Adverse events of special interest included phototoxicity; pseudotumor cerebri; and pseudomembranous colitis. Vital signs were observed by the investigator at each visit. Lab tests were conducted at 0, 8 & 16 weeks."}, "[2]": {"settings": "N = 216 (40 mg), N = 223 (100 mg)"}}}
{"smiles": "C[C@H]1c2cccc(O)c2C(=O)C2=C(O)[C@]3(O)C(=O)C(C(N)=O)=C(O)[C@@H](N(C)C)[C@@H]3[C@@H](O)[C@@H]21", "note": "[Doxycycline 100 mg, doxycycline]", "values": [{"measurement": "Median % Change in Inflammatory Lesion Count", "setting": "moderate or severe acne; Week 12 (LOCF)", "value": "−46.7", "unit": "%"}, {"measurement": "Median % change in Total Lesion Count", "setting": "moderate or severe acne; Week 12 (LOCF)", "value": "−30.6", "unit": "%"}, {"measurement": "Reduction in inflammatory lesion count, delta vs placebo", "setting": "moderate or severe acne; Week 12 (LOCF)", "value": 0.3}, {"measurement": "Success Rate, delta vs placebo", "setting": "moderate or severe acne; Week 12 (LOCF)", "value": "−1.4"}, {"measurement": "Reduction from baseline in inflammatory lesion count", "setting": "moderate or severe acne; Week 12 (LOCF)", "value": "12.2 (0.604)"}, {"measurement": "Success Rate (IGA clear or almost clear)", "setting": "moderate or severe acne; Week 12 (LOCF)", "value": "5.4% (0.536)"}, {"measurement": "Median % Change in Inflammatory Lesion Count", "setting": "moderate or severe acne; Week 16 (LOCF)", "value": "−47.3", "unit": "%"}, {"measurement": "Median % change in Total Lesion Count", "setting": "moderate or severe acne; Week 16 (LOCF)", "value": "−35.9", "unit": "%"}, {"measurement": "Reduction in inflammatory lesion count, delta vs placebo", "setting": "moderate or severe acne; Week 16 (LOCF)", "value": 0.3}, {"measurement": "Success Rate, delta vs placebo", "setting": "moderate or severe acne; Week 16 (LOCF)", "value": 6.1}, {"measurement": "Reduction from baseline in inflammatory lesion count", "setting": "moderate or severe acne; Week 16 (LOCF)", "value": "12.9 (0.595)"}, {"measurement": "Success Rate (IGA clear or almost clear)", "setting": "moderate or severe acne; Week 16 (LOCF)", "value": "13.8% (0.035)"}, {"measurement": "drug related AEs (nausea, vomiting & headaches)", "setting": "[1]; 16 weeks once daily oral", "value": 38}, {"measurement": "Total Number of AE(s)", "setting": "[1]; 16 weeks once daily oral, N = 216 (40 mg), N = 223 (100 mg)", "value": 50}, {"measurement": "Abdominal discomfort, number of subjects", "setting": "[1]; [2]", "value": 4}, {"measurement": "Abdominal discomfort, percent of subjects", "setting": "[1]; [2]", "value": "(1.8%)"}, {"measurement": "Dizziness, number of subjects", "setting": "[1]; [2]", "value": 1}, {"measurement": "Dizziness, percent of subjects", "setting": "[1]; [2]", "value": "(0.4%)"}, {"measurement": "Headache, number of subjects", "setting": "[1]; [2]", "value": 6}, {"measurement": "Headache, percent of subjects", "setting": "[1]; [2]", "value": "(2.7%)"}, {"measurement": "Nausea, number of subjects", "setting": "[1]; [2]", "value": 12}, {"measurement": "Nausea, percent of subjects", "setting": "[1]; [2]", "value": "(5.4%)"}, {"measurement": "Tinnitus, number of subjects", "setting": "[1]; [2]", "value": 0}, {"measurement": "Total Number of Subjects with AE(s), number", "setting": "[1]; [2]", "value": 38}, {"measurement": "Total Number of Subjects with AE(s), percent", "setting": "[1]; [2]", "value": "(17.0%)"}, {"measurement": "Urticaria, number of subjects", "setting": "[1]; [2]", "value": 2}, {"measurement": "Urticaria, percent of subjects", "setting": "[1]; [2]", "value": "(0.9%)"}, {"measurement": "Vomiting, number of subjects", "setting": "[1]; [2]", "value": 14}, {"measurement": "Vomiting, percent of subjects", "setting": "[1]; [2]", "value": "(6.3%)"}, {"measurement": "Vulvovaginal mycotic infection, number of subjects", "setting": "[1]; [2]", "value": 1}, {"measurement": "Vulvovaginal mycotic infection, percent of subjects", "setting": "[1]; [2]", "value": "(0.4%)"}]}
